In the assay the target is T1, human PD-1 / PD-L1-Ig binding on Jurkat cell line over-expressing human PD-1 (Jurkat-PD-1) (Homo sapiens, UniProt Q15116).
T1 construct: expressed in transfected cells; host or cells: Jurkat
In words: Jurkat-PD-1 Cell Binding High-Content Screening Assay (CBA). It counts as cell-based. To be noted: Jurkat-PD-1 cells, PE-labeled PD-L1-Ig 20 nM final; read-out: Jurkat HPD1_PDL1 IC50. An outline of the steps: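 PE-PD-L1-Ig 20 nM final; cells in DMEM/10% FCS; cpd pre-incubation 2 h, 37° C; ligand 1 h; PFA fix + Hoechst 33342; high-content imaging read-out.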

SMILES strings stand for the structures. Where a SMILES comes first, the peptide text is derived from it. Bridges are numbered along the chain shown (N, C = ends). [ ]: non-standard residue; d: D form. The star is where a group is joined. Phe(4-CH2CH2COOH) = N[C@@H](Cc1ccc(CCC(=O)O)cc1)C(=O)O; Phe(4-(3-Py)) = N[C@@H](Cc1ccc(-c2cccnc2)cc1)C(=O)O; Phe(3-CF3) = N[C@@H](Cc1cccc(C(F)(F)F)c1)C(=O)O; Ala(morpholin-4-yl) = N[C@@H](CN1CCOCC1)C(=O)O; Phe(4-CONH2) = NC(=O)c1ccc(C[C@H](N)C(=O)O)cc1; Phe(4-COOH) = N[C@@H](Cc1ccc(C(=O)O)cc1)C(=O)O; Phe(3,4-F2) = N[C@@H](Cc1ccc(F)c(F)c1)C(=O)O; Bip = N[C@@H](Cc1ccc(-c2ccccc2)cc1)C(=O)O; Phe(3-Me) = Cc1cccc(C[C@H](N)C(=O)O)c1; Val(3-OH) = CC(C)(O)[C@H](N)C(=O)O; hPhe = N[C@@H](CCc1ccccc1)C(=O)O; 4Pal = N[C@@H](Cc1ccncc1)C(=O)O; Cha = N[C@@H](CC1CCCCC1)C(=O)O; Cit = NC(=O)NCCC[C@H](N)C(=O)O; Carboxymethyl = O=C(O)C*; Orn = NCCC[C@H](N)C(=O)O; Pra = C#CC[C@H](N)C(=O)O; Dab = NCC[C@H](N)C(=O)O; Dap = NC[C@H](N)C(=O)O

T1 sequence (Q15116 25-288): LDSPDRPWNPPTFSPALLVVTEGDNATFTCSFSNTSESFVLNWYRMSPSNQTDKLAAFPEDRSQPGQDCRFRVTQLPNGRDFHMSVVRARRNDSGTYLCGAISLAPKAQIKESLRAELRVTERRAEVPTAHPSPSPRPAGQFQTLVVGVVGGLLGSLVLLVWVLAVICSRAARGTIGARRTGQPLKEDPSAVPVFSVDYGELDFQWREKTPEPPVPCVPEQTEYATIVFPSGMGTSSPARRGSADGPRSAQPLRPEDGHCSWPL

Consider `CC(C)C[C@@H]1NC(=O)[C@H](Cc2c[nH]c3ccccc23)NC(=O)[C@H](CC(=O)O)NC(=O)[C@H](Cc2ccc(CCC(=O)O)cc2)NC(=O)[C@H](Cc2ccc(OCC(=O)O)cc2)NC(=O)CSC[C@@H](C(=O)NCC(N)=O)NC(=O)[C@H](CO)NC(=O)[C@H](C(C)C)NC(=O)[C@H](CC(C)C)NC(=O)[C@H](CCN)NC(=O)[C@@H](CC(C)C)NC(=O)[C@H](CCCN)NC(=O)[C@H](C(C)C)NC(=O)[C@H](Cc2ccc(-c3ccccc3)cc2)NC1=O` [Compound 1256] ({CH2CO}-Y(Carboxymethyl)[Phe(4-CH2CH2COOH)]DWL[Bip]V[Orn][dL][Dab]LVSCG-NH2; thioether N-14), for which the IC50 was found to be 6.7 nM. Take `Cc1cccc(C[C@@H]2NC(=O)[C@H](CC(=O)O)NC(=O)[C@H](Cc3ccc(OCC(=O)O)cc3)NC(=O)[C@H](CN)NC(=O)CSC[C@@H](C(N)=O)NC(=O)[C@H](CCC(=O)O)NC(=O)[C@H](C(C)C)NC(=O)[C@H](CC3CCCCC3)NC(=O)[C@H](CCN)NC(=O)[C@@H](CC(C)C)NC(=O)[C@H](CCCN)NC(=O)[C@H](Cc3ccc(OCC(=O)O)cc3)NC(=O)[C@H](Cc3ccc(-c4ccccc4)cc3)NC(=O)[C@H](Cc3ccc(OCC(=O)O)cc3)NC2=O)c1` [Compound 1784] ({CH2CO}-[Dap]Y(Carboxymethyl)D[Phe(3-Me)]Y(Carboxymethyl)[Bip]Y(Carboxymethyl)[Orn][dL][Dab][Cha]VEC-NH2; thioether N-14): the 50% inhibitory concentration (IC50) came to 25.8 nM. As to `Cc1cccc(C[C@@H]2NC(=O)[C@H](CC(=O)O)NC(=O)[C@H](Cc3ccc(C(=O)O)cc3)NC(=O)[C@H](Cc3ccncc3)NC(=O)CSC[C@@H](C(=O)N[C@@H](CC(N)=O)C(N)=O)NC(=O)[C@H](CCC(N)=O)NC(=O)[C@H](C(C)C)NC(=O)[C@H](CC3CCCCC3)NC(=O)[C@H](CCN)NC(=O)[C@@H](CC(C)C)NC(=O)[C@H](CCCN)NC(=O)[C@H](Cc3ccc(OCC(=O)O)cc3)NC(=O)[C@H](Cc3ccc(-c4ccccc4)cc3)NC(=O)[C@H](Cc3ccc(OCC(=O)O)cc3)NC2=O)c1` [Compound 2305] ({CH2CO}-[4Pal][Phe(4-COOH)]D[Phe(3-Me)]Y(Carboxymethyl)[Bip]Y(Carboxymethyl)[Orn][dL][Dab][Cha]VQCN-NH2; thioether N-14), the IC50 was 10.2 nM. For `CC(C)C[C@H]1NC(=O)[C@H](CCCN)NC(=O)[C@H](CCCNC(N)=O)NC(=O)[C@H](Cc2ccc(-c3ccccc3)cc2)NC(=O)[C@H](C(C)C)NC(=O)[C@H](Cc2c[nH]c3ccccc23)NC(=O)[C@H](CC(=O)O)NC(=O)[C@H](Cc2ccc(OCC(=O)O)cc2)NC(=O)[C@H](CN)NC(=O)CSC[C@@H](C(=O)N[C@@H](C)C(N)=O)NC(=O)[C@H]([C@@H](C)O)NC(=O)[C@H](C(C)C)NC(=O)[C@H](CCc2ccccc2)NC(=O)[C@H](CCN)NC1=O` [Compound 1364] ({CH2CO}-[Dap]Y(Carboxymethyl)DWV[Bip][Cit][Orn][dL][Dab][hPhe]VTCA-NH2; thioether N-14) the value was 57.6 nM; for `Cc1cccc(C[C@@H]2NC(=O)[C@H](CC(=O)O)NC(=O)[C@H](Cc3ccc(C(=O)O)cc3)NC(=O)[C@H](CCc3ccccc3)NC(=O)CSC[C@@H](C(=O)N[C@@H](CCN)C(N)=O)NC(=O)[C@H](CO)NC(=O)[C@H](C(C)(C)O)NC(=O)[C@H](CC3CCCCC3)NC(=O)[C@H](CCN)NC(=O)[C@@H](CC(C)C)NC(=O)[C@H](CCCN)NC(=O)[C@H](Cc3ccc(OCC(=O)O)cc3)NC(=O)[C@H](Cc3ccc(-c4ccccc4)cc3)NC(=O)[C@H](Cc3ccc(OCC(=O)O)cc3)NC2=O)c1` [Compound 2081] ({CH2CO}-[hPhe][Phe(4-COOH)]D[Phe(3-Me)]Y(Carboxymethyl)[Bip]Y(Carboxymethyl)[Orn][dL][Dab][Cha][Val(3-OH)]SC[Dab]-NH2; thioether N-14), 111 nM; for `C#CC[C@H](NC(=O)[C@@H]1CSCC(=O)N[C@@H](CCN)C(=O)N[C@@H](Cc2ccc(C(=O)O)cc2)C(=O)N[C@@H](CC(=O)O)C(=O)N[C@@H](Cc2cccc(C)c2)C(=O)N[C@@H](Cc2ccc(C(=O)O)cc2)C(=O)N[C@@H](Cc2ccc(-c3ccccc3)cc2)C(=O)N[C@@H](Cc2ccc(C(=O)O)cc2)C(=O)N[C@@H](CCCN)C(=O)N[C@H](CC(C)C)C(=O)N[C@@H](CCN)C(=O)N[C@@H](CC2CCCCC2)C(=O)N[C@@H](C(C)(C)O)C(=O)N[C@@H](CO)C(=O)N1)C(=O)O` [Compound 2704] ({CH2CO}-[Dab][Phe(4-COOH)]D[Phe(3-Me)][Phe(4-COOH)][Bip][Phe(4-COOH)][Orn][dL][Dab][Cha][Val(3-OH)]SC[Pra]-OH; thioether N-14), 316 nM. For `Cc1cccc(C[C@@H]2NC(=O)[C@H](CC(=O)O)NC(=O)[C@H](Cc3ccc(OCC(=O)O)cc3)NC(=O)[C@H](CN)NC(=O)CSC[C@@H](C(=O)N[C@@H](C)C(N)=O)NC(=O)[C@H]([C@@H](C)O)NC(=O)[C@H](C(C)C)NC(=O)[C@H](CC3CCCCC3)NC(=O)[C@H](CCN)NC(=O)[C@@H](CC(C)C)NC(=O)[C@H](CCCN)NC(=O)[C@H](CCN)NC(=O)[C@H](Cc3ccc(-c4ccccc4)cc3)NC(=O)[C@H](C(C)C)NC2=O)c1` [Compound 1309] ({CH2CO}-[Dap]Y(Carboxymethyl)D[Phe(3-Me)]V[Bip][Dab][Orn][dL][Dab][Cha]VTCA-NH2; thioether N-14) the value was 48.4 nM; for `CC(C)C[C@@H]1NC(=O)[C@H](Cc2c[nH]c3ccccc23)NC(=O)[C@H](CC(=O)O)NC(=O)[C@H](Cc2ccncc2)NC(=O)[C@H](Cc2ccc(OCC(=O)O)cc2)NC(=O)CSC[C@@H](C(=O)NCC(N)=O)NC(=O)[C@H](CO)NC(=O)[C@H](C(C)C)NC(=O)[C@H](CC2CCCCC2)NC(=O)[C@H](CC(N)=O)NC(=O)[C@@H](CC(C)C)NC(=O)[C@H](CCCN)NC(=O)[C@H](C(C)C)NC(=O)[C@H](Cc2ccc(-c3ccccc3)cc2)NC1=O` [Compound 1338] ({CH2CO}-Y(Carboxymethyl)[4Pal]DWL[Bip]V[Orn][dL]N[Cha]VSCG-NH2; thioether N-14), 38 nM. For `CC(C)C[C@H]1NC(=O)[C@H](CCCN)NC(=O)[C@H](CCC(=O)O)NC(=O)[C@H](Cc2ccc(-c3ccccc3)cc2)NC(=O)[C@H](C(C)C)NC(=O)[C@H](Cc2c[nH]c3ccccc23)NC(=O)[C@H](CC(=O)O)NC(=O)[C@H](Cc2ccc(OCC(=O)O)cc2)NC(=O)[C@H](CN)NC(=O)CSC[C@@H](C(=O)N[C@@H](C)C(N)=O)NC(=O)[C@H]([C@@H](C)O)NC(=O)[C@H](C(C)C)NC(=O)[C@H](CC2CCCCC2)NC(=O)[C@H](Cc2cnc[nH]2)NC1=O` [Compound 1518] the value was 18.7 nM; for `CC(C)C[C@H]1NC(=O)[C@H](CCCN)NC(=O)[C@H](Cc2ccc(C(=O)O)cc2)NC(=O)[C@H](Cc2ccc(-c3ccccc3)cc2)NC(=O)[C@H](Cc2ccc(-c3cccnc3)cc2)NC(=O)[C@H](Cc2cccc(C(F)(F)F)c2)NC(=O)[C@H](CC(=O)O)NC(=O)[C@H](Cc2ccc(C(=O)O)cc2)NC(=O)[C@H](CN2CCOCC2)NC(=O)CSC[C@@H](C(=O)N[C@@H](CCN)C(N)=O)NC(=O)[C@H](CCC(=O)O)NC(=O)[C@H](C(C)C)NC(=O)[C@H](CC2CCCCC2)NC(=O)[C@H](CCN)NC1=O` [Example 2731] ({CH2CO}-[Ala(morpholin-4-yl)][Phe(4-COOH)]D[Phe(3-CF3)][Phe(4-(3-Py))][Bip][Phe(4-COOH)][Orn][dL][Dab][Cha]VEC[Dab]-NH2; thioether N-14), 1.5 nM; for `CC(C)C[C@H]1NC(=O)[C@H](CCCN)NC(=O)[C@H](CCC(=O)O)NC(=O)[C@H](Cc2ccc(-c3ccccc3)cc2)NC(=O)[C@H](C(C)C)NC(=O)[C@H](Cc2c[nH]c3ccccc23)NC(=O)[C@H](CC(=O)O)NC(=O)[C@H](Cc2ccc(OCC(=O)O)cc2)NC(=O)[C@H](CN)NC(=O)CSC[C@@H](C(=O)N[C@@H](C)C(N)=O)NC(=O)[C@H]([C@@H](C)O)NC(=O)[C@H](C(C)C)NC(=O)[C@H](CC2CCCCC2)NC(=O)[C@H](CC(=O)O)NC1=O` [Compound 1514] ({CH2CO}-[Dap]Y(Carboxymethyl)DWV[Bip]E[Orn][dL]D[Cha]VTCA-NH2; thioether N-14), 34.8 nM.

On to `CC[C@H](C)[C@@H]1NC(=O)[C@H](Cc2ccc(-c3ccccc3)cc2)NC(=O)[C@H](C(C)C)NC(=O)[C@H](Cc2cccc(C)c2)NC(=O)[C@H](CC(=O)O)NC(=O)[C@H](Cc2ccc(OCC(=O)O)cc2)NC(=O)[C@H](Cc2ccncc2)NC(=O)CSC[C@@H](C(=O)N[C@@H](C)C(N)=O)NC(=O)[C@H]([C@@H](C)O)NC(=O)[C@H](C(C)C)NC(=O)[C@H](CC2CCCCC2)NC(=O)[C@H](CCN)NC(=O)[C@@H](CC(C)C)NC(=O)[C@H](CCCN)NC1=O` [Compound 1198], for which the IC50 is 15.6 nM. Then `CC(C)C[C@H]1NC(=O)[C@H](CCCN)NC(=O)[C@H](CCC(=O)O)NC(=O)[C@H](Cc2ccc(-c3ccccc3)cc2)NC(=O)[C@H](C(C)C)NC(=O)[C@H](Cc2c[nH]c3ccccc23)NC(=O)[C@H](CC(=O)O)NC(=O)[C@H](Cc2ccc(OCC(=O)O)cc2)NC(=O)[C@H](CN)NC(=O)CSC[C@@H](C(=O)N[C@@H](C)C(N)=O)NC(=O)[C@H]([C@@H](C)O)NC(=O)[C@H](C(C)C)NC(=O)[C@H](Cc2ccc(F)c(F)c2)NC(=O)[C@H](CCN)NC1=O` [Compound 1482] ({CH2CO}-[Dap]Y(Carboxymethyl)DWV[Bip]E[Orn][dL][Dab][Phe(3,4-F2)]VTCA-NH2; thioether N-14), with 104 nM; and `Cc1cccc(C[C@@H]2NC(=O)[C@H](CC(=O)O)NC(=O)[C@H](Cc3ccc(OCC(=O)O)cc3)NC(=O)[C@H](Cc3ccncc3)NC(=O)CSC[C@@H](C(=O)N[C@@H](CCN)C(N)=O)NC(=O)[C@H](CO)NC(=O)[C@H](C(C)(C)O)NC(=O)[C@H](CC3CCCCC3)NC(=O)[C@H](CCN)NC(=O)[C@@H](CC(C)C)NC(=O)[C@H](CCCN)NC(=O)[C@H](Cc3ccc(O)cc3)NC(=O)[C@H](Cc3ccc(-c4ccccc4)cc3)NC(=O)[C@H](Cc3ccc(C(N)=O)cc3)NC2=O)c1` [Compound 2623] ({CH2CO}-[4Pal]Y(Carboxymethyl)D[Phe(3-Me)][Phe(4-CONH2)][Bip]Y[Orn][dL][Dab][Cha][Val(3-OH)]SC[Dab]-NH2; thioether N-14), with 4.6 nM.

The record behind these values is US20250163104A1, “MACROCYCLIC IMMUNOMODULATORS” (priority 2021, published 2025).
